Test results reported in ChEMBL document CHEMBL1131744, “Amino-substituted thalidomide analogs: potent inhibitors of TNF-alpha production” (Bioorg Med Chem Lett, 1999).

How the values were obtained:
PBMC [1] = experiment: Inhibition of lipopolysaccharide stimulated TNF-alpha release in human PBMC at 100 uM; type: functional
[2] = molecular target: T1, Phosphodiesterase 4 (Homo sapiens) (UniProt P27815+Q08499+Q07343+Q08493); experiment: Inhibition of PDE4 from U937 cells at 100 uM; type: cell-based; conditions: U-937
Homo sapiens = species on record: Homo sapiens; experiment: Inhibition of lipopolysaccharide stimulated TNF-alpha release in human whole blood; type: functional
PBMC [3] = experiment: Inhibition of lipopolysaccharide stimulated TNF-alpha release in human PBMC; type: functional, cell-based
[4] = molecular target: T1, Phosphodiesterase 4 (Homo sapiens); experiment: Inhibition of Phosphodiesterase 4 from U937 cells at 100 uM; type: cell-based; conditions: U-937

inhibition [2] [%] | IC50 (Homo sapiens) [µM] | inhibition [4] [%] | Structure (SMILES) | inhibition at 100 µM (PBMC [1]) [%] | IC50 (PBMC [3]) [µM]
 | 0.014 |  | Nc1cccc2c1C(=O)N([C@H]1CCC(=O)NC1=O)C2=O | 99 | 0.0039
 | 0.025 | < 50 | Nc1cccc2c1C(=O)N(C1CCC(=O)NC1=O)C2=O (stereo unspecified) [POMALIDOMIDE] | 95 | 0.013
 | 0.073 |  | Nc1cccc2c1C(=O)N([C@@H]1CCC(=O)NC1=O)C2=O | 85 | 0.093

Continued, compound first:

Structure (SMILES) | inhibition [2] [%] | IC50 (Homo sapiens) [µM] | inhibition [4] [%] | inhibition at 100 µM (PBMC [1]) [%] | IC50 (PBMC [3]) [µM]
CC1(N2C(=O)c3cccc(N)c3C2=O)CCC(=O)NC1=O (stereo unspecified) | < 50 | 0.216 |  | 98 | 0.044
Nc1ccc2c(c1)C(=O)N(C1CCC(=O)NC1=O)C2=O (stereo unspecified) |  |  |  | 55 | 
Nc1cccc2c1CN(C1CCC(=O)NC1=O)C2=O (stereo unspecified) [LENALIDOMIDE] |  | 0.48 | < 50 | 74 | 
Nc1ccc2c(c1)C(=O)N(C1CCC(=O)NC1=O)C2 (stereo unspecified) |  |  |  | 12 | 
Nc1cccc2c1C(=O)N(C1CCC(=O)NC1=O)C2 (stereo unspecified) |  |  |  | 18 | 
Nc1ccc2c(c1)CN(C1CCC(=O)NC1=O)C2=O (stereo unspecified) |  |  |  | 15 | 
